These results are taken from ChEMBL document CHEMBL1201862, “PubChem BioAssay data set” (2004).

One assay addresses Prothrombin (Homo sapiens, UniProt P00734). Description: Thrombin 1536 HTS Dose Response Confirmation. [Related pubchem assays: 1046 (Thrombin 1536 HTS; hits were confirmed in this assay)]. The format is functional.
Assay [1] has as its target Mitochondrial peptide methionine sulfoxide reductase (Bos taurus, UniProt P54149). Put plainly: Absorbance-based biochemical high throughput dose response assay for activators of Methionine sulfoxide reductase A (MsrA). Format: functional.
The next assay concerns the target T1, Caspase-6 (Homo sapiens, UniProt P55212).
T1 sequence (P55212 whole entry): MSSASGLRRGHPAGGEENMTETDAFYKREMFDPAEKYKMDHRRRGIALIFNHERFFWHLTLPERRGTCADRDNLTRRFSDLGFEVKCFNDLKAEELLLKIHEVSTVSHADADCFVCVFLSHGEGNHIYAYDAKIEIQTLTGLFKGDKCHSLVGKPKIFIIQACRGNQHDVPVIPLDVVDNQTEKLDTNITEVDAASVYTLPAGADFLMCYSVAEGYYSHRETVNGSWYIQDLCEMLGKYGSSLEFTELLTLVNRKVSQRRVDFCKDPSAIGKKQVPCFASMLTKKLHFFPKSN
Put plainly: human caspase-6 inhibitors, dose response, biochemical, VEID-R110 fluorescence, cherry-pick (AID 720632).

The target of another assay is Caspase-9 (Homo sapiens, UniProt P55211). Put plainly: caspase-9 enzyme inhibition, dose response, selectivity assay for caspase-6 inhibitor project, biochemical, fluorescence, plate reader, cherry-picked samples (AID 743293).
Assay [2] addresses T2, Replicative DNA helicase DnaB (Mycobacterium tuberculosis, UniProt P9WMR3).
T2 sequence (P9WMR3 whole entry): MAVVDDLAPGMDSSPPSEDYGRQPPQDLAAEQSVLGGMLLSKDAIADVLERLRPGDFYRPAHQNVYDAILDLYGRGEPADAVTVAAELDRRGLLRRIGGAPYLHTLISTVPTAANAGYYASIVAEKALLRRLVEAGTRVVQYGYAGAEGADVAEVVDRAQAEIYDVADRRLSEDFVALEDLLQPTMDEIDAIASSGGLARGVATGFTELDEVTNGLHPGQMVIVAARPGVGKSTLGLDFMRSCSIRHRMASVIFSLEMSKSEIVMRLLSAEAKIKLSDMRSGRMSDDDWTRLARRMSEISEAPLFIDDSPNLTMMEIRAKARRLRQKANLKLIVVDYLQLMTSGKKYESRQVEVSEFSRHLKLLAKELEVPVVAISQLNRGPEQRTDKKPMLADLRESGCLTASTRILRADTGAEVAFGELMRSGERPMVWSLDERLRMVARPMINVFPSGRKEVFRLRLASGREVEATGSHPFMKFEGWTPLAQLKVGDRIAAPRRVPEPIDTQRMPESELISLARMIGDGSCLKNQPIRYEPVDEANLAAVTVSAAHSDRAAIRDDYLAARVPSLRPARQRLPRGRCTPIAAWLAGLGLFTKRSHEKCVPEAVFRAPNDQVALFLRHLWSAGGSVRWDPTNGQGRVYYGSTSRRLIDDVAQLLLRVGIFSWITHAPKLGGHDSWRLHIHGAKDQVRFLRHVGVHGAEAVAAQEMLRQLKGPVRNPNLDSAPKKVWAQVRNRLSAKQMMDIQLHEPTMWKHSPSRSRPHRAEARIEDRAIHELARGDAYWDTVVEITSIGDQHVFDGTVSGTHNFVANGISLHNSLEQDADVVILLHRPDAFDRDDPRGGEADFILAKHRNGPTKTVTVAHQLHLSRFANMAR
Put plainly: DnaB intein splicing inhibitors, dose response, biochemical, cell-free fluorescence (AID 449749). The format is functional.

The target of assay [3] is T3, Sentrin-specific protease 7 (Homo sapiens, UniProt Q9BQF6).
T3 sequence (Q9BQF6 whole entry): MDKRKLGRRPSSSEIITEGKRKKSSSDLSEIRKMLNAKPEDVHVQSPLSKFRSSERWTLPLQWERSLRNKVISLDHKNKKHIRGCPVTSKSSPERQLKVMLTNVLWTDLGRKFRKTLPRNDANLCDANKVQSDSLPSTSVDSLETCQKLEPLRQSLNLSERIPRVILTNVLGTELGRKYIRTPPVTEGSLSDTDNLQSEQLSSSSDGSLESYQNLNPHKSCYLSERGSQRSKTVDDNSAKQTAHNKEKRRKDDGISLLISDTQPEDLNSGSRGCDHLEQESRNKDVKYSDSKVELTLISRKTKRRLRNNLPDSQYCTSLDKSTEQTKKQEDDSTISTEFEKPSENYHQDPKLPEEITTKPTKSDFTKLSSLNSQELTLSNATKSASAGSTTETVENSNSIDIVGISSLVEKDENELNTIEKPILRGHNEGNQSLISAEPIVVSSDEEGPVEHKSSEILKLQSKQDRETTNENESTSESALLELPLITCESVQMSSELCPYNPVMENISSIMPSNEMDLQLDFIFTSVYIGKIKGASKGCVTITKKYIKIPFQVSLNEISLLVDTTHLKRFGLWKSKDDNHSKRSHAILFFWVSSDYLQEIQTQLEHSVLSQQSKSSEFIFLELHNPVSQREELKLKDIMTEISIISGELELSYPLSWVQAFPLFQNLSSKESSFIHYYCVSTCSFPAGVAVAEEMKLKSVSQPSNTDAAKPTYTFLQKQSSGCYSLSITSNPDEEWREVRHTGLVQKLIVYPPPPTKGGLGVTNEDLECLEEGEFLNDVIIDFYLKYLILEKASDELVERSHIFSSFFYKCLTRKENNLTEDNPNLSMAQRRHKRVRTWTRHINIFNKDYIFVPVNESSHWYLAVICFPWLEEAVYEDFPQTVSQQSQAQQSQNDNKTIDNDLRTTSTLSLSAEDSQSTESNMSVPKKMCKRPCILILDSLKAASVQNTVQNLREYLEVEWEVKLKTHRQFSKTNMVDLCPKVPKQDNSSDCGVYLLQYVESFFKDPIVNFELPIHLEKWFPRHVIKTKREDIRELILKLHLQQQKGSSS
Description: SENP7 protease inhibitors, SAR follow-up, biochemical, luminescence (AID 504497). The format is functional.

The target of assay [4] is Ribosomal protein S6 kinase beta-1 (Homo sapiens, UniProt P23443). Format: functional.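 Further: measured as one member of a kinome-wide profiling panel.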
The target of assay [5] is Serine/threonine-protein kinase pim-1 (Homo sapiens, UniProt P11309). Format: functional.
In assay [6] the target is Casein kinase II subunit alpha (Homo sapiens, UniProt P68400). Format: functional.
Assay [7] addresses Calcium/calmodulin-dependent protein kinase type II subunit delta (Homo sapiens, UniProt Q13557). Format: functional.
Assay [8] has as its target Tyrosine-protein kinase Lyn (Homo sapiens, UniProt P07948). The format is functional.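 Further: lyn as one member of a kinase panel.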
In assay [9] the target is Testis-specific serine/threonine-protein kinase 1 (Homo sapiens, UniProt Q9BXA7). The format is functional.
Assay [10] has as its target Dual specificity tyrosine-phosphorylation-regulated kinase 3 (Homo sapiens, UniProt O43781). The format is functional.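 Further: measured as one member of a broad kinase panel.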
For assay [11], the target named is Tyrosine-protein kinase Fyn (Homo sapiens, UniProt P06241). The format is functional.

The structures appear in SMILES notation. Calls of active or inactive are those of the source. Where only a bound is given, the exact number is not on record here.

Mitochondrial peptide methionine sulfoxide reductase, sequence (P54149 whole entry): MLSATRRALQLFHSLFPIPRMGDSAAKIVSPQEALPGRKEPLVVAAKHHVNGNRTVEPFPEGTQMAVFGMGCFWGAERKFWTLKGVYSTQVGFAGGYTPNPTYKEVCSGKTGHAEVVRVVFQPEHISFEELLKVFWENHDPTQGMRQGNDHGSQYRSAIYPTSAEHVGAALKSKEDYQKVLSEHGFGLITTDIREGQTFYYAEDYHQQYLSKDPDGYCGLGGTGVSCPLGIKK
Caspase-9, sequence (P55211 1-315 limits assumed): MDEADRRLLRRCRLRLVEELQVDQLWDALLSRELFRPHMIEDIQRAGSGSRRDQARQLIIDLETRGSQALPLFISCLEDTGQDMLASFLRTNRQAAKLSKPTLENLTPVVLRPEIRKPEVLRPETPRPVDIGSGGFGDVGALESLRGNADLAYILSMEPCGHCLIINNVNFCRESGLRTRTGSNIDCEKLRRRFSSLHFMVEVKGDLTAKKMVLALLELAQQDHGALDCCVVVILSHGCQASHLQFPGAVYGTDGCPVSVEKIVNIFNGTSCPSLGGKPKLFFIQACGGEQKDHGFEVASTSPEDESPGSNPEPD
Caspase-9, sequence (P55211 331-416 limits assumed): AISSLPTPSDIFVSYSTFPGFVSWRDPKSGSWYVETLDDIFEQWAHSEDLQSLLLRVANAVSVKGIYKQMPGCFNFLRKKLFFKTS
Tyrosine-protein kinase Fyn, sequence (P06241 whole entry): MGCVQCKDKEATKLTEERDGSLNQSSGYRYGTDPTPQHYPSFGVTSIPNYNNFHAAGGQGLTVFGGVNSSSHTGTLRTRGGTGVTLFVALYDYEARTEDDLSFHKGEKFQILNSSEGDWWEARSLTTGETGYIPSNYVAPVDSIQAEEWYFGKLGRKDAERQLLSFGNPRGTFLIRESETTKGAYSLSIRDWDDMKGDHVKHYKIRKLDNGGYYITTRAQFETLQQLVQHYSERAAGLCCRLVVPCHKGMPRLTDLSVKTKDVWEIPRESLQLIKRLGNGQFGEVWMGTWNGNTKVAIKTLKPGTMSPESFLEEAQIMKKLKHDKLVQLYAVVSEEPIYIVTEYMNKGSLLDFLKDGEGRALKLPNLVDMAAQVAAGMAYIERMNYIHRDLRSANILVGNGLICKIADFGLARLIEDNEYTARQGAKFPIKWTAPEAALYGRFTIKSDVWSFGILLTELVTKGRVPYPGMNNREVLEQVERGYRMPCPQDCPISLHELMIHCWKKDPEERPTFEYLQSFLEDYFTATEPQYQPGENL
Ribosomal protein S6 kinase beta-1, sequence (P23443 whole entry): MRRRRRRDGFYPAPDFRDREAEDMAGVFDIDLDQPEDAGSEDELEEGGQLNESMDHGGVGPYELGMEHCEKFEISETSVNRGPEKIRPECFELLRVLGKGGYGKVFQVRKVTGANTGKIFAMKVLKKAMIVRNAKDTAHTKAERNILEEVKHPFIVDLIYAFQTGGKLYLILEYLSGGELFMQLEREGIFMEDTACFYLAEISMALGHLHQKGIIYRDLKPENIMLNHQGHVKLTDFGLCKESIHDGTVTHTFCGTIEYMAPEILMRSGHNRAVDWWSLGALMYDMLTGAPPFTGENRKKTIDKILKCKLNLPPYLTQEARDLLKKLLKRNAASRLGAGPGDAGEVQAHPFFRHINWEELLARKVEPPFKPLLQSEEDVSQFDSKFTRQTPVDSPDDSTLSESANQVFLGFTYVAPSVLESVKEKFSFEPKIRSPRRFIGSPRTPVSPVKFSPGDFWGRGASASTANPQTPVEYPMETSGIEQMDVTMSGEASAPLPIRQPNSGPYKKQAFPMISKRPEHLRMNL
Testis-specific serine/threonine-protein kinase 1, sequence (Q9BXA7 whole entry): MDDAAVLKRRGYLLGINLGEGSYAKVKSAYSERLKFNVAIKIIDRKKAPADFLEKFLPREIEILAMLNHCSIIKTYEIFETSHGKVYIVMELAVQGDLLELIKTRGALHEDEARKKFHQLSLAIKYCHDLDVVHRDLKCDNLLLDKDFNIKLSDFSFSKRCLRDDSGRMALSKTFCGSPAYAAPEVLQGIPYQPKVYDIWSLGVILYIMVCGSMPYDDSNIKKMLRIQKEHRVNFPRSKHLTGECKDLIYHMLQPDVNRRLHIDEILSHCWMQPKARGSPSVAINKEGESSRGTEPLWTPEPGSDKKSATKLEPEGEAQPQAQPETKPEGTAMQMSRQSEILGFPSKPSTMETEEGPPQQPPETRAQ
Dual specificity tyrosine-phosphorylation-regulated kinase 3, sequence (O43781 whole entry): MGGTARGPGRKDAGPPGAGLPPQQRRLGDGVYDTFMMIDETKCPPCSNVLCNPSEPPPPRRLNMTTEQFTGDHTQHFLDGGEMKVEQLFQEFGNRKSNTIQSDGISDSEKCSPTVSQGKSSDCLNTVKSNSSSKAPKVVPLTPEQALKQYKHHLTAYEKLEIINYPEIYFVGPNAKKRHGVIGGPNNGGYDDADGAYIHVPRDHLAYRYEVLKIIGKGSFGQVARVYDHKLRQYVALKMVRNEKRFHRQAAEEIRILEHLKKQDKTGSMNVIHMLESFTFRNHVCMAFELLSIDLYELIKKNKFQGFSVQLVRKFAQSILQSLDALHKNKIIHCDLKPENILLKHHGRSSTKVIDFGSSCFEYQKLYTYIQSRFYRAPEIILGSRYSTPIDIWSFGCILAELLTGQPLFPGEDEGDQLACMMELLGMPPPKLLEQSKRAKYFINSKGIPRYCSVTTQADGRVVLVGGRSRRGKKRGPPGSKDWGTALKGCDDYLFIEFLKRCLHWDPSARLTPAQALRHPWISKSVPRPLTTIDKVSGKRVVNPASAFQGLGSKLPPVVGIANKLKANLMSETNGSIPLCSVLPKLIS
Serine/threonine-protein kinase pim-1, sequence (P11309 whole entry): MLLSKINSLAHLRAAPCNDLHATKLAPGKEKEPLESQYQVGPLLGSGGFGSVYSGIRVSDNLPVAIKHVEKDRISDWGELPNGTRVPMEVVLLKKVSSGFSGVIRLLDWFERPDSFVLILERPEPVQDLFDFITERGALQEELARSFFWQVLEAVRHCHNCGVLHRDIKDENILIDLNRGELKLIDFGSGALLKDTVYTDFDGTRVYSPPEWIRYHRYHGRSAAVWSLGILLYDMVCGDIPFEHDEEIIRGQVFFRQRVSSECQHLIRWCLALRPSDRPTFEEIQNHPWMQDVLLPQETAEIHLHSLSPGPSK
Calcium/calmodulin-dependent protein kinase type II subunit delta, sequence (Q13557 whole entry): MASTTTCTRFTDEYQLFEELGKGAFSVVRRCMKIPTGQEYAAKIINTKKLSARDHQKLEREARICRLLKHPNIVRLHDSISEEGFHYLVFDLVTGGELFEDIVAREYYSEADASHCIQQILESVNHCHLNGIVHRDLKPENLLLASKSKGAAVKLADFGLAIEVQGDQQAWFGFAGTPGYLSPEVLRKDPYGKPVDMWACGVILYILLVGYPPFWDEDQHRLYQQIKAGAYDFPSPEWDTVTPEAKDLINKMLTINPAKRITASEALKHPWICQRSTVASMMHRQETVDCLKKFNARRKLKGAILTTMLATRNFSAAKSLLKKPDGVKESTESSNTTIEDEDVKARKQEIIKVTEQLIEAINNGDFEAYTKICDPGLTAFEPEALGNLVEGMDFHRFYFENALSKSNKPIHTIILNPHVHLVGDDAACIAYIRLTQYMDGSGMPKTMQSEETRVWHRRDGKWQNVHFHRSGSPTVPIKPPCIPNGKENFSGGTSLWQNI
Casein kinase II subunit alpha, sequence (P68400 whole entry): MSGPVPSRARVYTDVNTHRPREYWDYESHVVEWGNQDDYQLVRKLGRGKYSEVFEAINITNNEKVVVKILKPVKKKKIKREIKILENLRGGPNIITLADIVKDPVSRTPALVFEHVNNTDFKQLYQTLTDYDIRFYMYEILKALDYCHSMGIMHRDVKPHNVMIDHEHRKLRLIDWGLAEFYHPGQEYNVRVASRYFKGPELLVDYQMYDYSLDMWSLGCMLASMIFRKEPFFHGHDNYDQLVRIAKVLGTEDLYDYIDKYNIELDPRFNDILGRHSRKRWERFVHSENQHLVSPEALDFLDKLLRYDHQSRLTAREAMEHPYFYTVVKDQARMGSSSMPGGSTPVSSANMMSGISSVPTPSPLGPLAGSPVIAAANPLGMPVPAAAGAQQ
Tyrosine-protein kinase Lyn, sequence (P07948 whole entry): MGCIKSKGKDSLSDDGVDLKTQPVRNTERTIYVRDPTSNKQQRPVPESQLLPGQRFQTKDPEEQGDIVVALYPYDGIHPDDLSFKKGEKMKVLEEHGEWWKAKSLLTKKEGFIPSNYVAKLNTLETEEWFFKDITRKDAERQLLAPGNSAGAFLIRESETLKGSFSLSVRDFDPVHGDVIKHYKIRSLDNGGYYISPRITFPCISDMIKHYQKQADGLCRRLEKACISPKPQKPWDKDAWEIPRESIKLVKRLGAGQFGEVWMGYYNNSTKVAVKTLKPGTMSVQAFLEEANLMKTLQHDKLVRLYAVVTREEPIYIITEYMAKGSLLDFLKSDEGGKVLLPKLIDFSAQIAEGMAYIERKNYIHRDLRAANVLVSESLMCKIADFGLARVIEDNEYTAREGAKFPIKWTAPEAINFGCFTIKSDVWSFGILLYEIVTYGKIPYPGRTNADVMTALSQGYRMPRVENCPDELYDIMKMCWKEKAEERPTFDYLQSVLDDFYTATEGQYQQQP

For the compound `O=C(COC(=O)c1ccc([N+](=O)[O-])s1)Nc1cccc(S(=O)(=O)/N=C2/CCCCCN2)c1`, the 50% inhibitory concentration (IC50) (in general, the concentration that inhibits the measured activity by half) against Prothrombin was > 50000 nM (not active). Also, the EC50 – broadly, the midpoint of the concentration-response curve – in assay [1] is 70400 nM (inactive). Moreover, the AC50 (commonly the midpoint of the concentration-response curve, whichever way the signal moves) was 4570 nM (active) on Caspase-6 and 30200 nM (active) on Caspase-9.

As to `COc1ccc(C(C[N+](=O)[O-])c2c(C)[nH]n(-c3ccccc3)c2=O)cc1` (centres undefined), in [2], the AC50 was 3000 nM (active). In assay [3], the IC50 was 12300 nM (active).

As to `Oc1c2ccccc2c2c3c(cccc13)N=N2` [SP-600125], the Ki (usually the equilibrium dissociation constant of an inhibitor or competing ligand from its target) is 126 nM (active) in assay [4]; 501 nM (active) in assay [5]; 501 nM (active) in [6]; 1000 nM (active) in assay [7]; 1000 nM (active) in assay [8]; > 1580 nM (inactive) in [9]. The figures for the Ki in assay [10] and in assay [11] were 316 nM (active) and > 794 nM (inactive), respectively.
